According to PMC4200806, “A Combined Experimental and Computational Study of Vam3, a Derivative of Resveratrol, and Syk Interaction” (International Journal of Molecular Sciences, 2014):

Target: Spleen tyrosine kinase (Syk) (Homo sapiens, UniProt P43405)
Experiment: in vitro kinase assay with purified recombinant Syk (ADP-Glo, poly(Glu,Tyr) substrate); Ki from ATP-competition kinetics; IC50 […]
Type: biochemical

Ki: 61.1 nM
SMILES: Oc1ccc(/C=C/c2cc(O)cc3oc(-c4ccc(O)cc4)c(-c4cc(O)cc(O)c4)c23)cc1 [Vam3]
